How the values were obtained:
[1] = system: PDK1; assay: PDK1 assay: activation of GST-PKBα by purified PDK1 with phospholipid vesicles; format: biochemical, rabbit; settings: for activation of PDK1 (in words) / fold-activation of GST-PKBα (PDK1 activity): lipid 10 μM in vesicles of 100 μM PtdCho, 100 μM PtdSer, 30 min at 30° C.; for order of level of activation of the 3-phosphoinositide-dependent kinase (most effective first): rabbit skeletal muscle PDK1, FIG. 6
Description: (§1) Assay of PDK1. The assay was carried out in two stages; in the first, GST-PKBα was incubated with PDK1 in the presence of MgATP and phospholipid vesicles to permit activation of GST-PKBα.
(§2) After 10 min at 30° C., the reactions were terminated by spotting the reaction mixture on to p81 phosphocellulose paper. The papers were washed in phosphoric acid and analysed as described previously. […] The basal GST-PKBα activity is the activity measured in the absence of PDK1.

[2] = molecular target: T1, GST-ΔPH-PDK1 (Homo sapiens, UniProt O15530); assay: GST-ΔPH-PDK1 assay: activation of GST-PKBα; format: biochemical; settings: lipid 10 μM in PtdCho/PtdSer vesicles
T1 construct: expressed as a GST-fusion protein in 293 cells (GST-ΔPH-PDK1, residues 1-450); made in house; host or cells: human embryonic kidney 293 cells (pEBG-2T)
Description: FIG. 15. Role of the PH domains of PKBα and PDK1. […] The assays were terminated by making the incubations 1% (by vol) in Triton X-100 as in Example 1, and the increase in specific activity of GST-PKBα was determined. The basal activity of GST-PKBα was 2.5 U/mg and that of GST-ΔPH-PKBα was 8 U/mg. At the high concentration of GST-PDK1 used in this assay the rate of activation of full length wild type GST-PKBα is not linear with time whereas the activation of GST-ΔPH-PKBα is linear. When the experiments are carried out at 20-fold lower concentrations of GST-PDK1 a similar extent of activation of wild-type GST-PKBα is achieved as that shown in the figure for GST-ΔPH-PKBα by 2.3 nM GST-PDK1. (B) as in (A) except that 0.5 μg of GST-PKBα was incubated with 2.5 nM […] in the presence of phospholipid vesicles containing 100 μM PtdCho, 100 μM PtdSer and 10 μM of either, sn-1-stearoyl-2-arachidonyl-D-PtdIns(3,4,5)P3 (Track 1); sn-1-stearoyl-2-arachidonyl-L-PtdIns(3,4,5)P3 (Track 2), sn-1,2 di-palmitoyl-D-PtdIns(3,4,5)P3 (Track 3), sn-1,2 di-palmitoyl-D-PtdIns(3,4,5)P3 (Track 4), PtdIns(4,5)P2 (purified from Folch brain fraction Track 5) and sn-1,2 di-palmitoyl-D-PtdIns-3P (Track 6). The results are presented as the increase in the specific activity of GST-PKBα (U/mg), (±SEM for 6-9 determinations, three independent experiments), relative to a control incubation in which GST-PDK1 is omitted.
Assay of GST-PDK1 and GST-DSTPK61 activity. GST-PDK1 and GST-DSTPK61 were diluted appropriately in Buffer B containing 1 mg/ml bovine serum albumin, and assayed for their ability to activate and phosphorylate GST-PKBα [21]. One unit of PDK1 activity was defined as that amount required to increase the basal activity of GST-PKBα by 1 unit of activity in one min. One unit of GST-PKBα activity was that amount of enzyme required to catalyse the phosphorylation of 1 nmol of the peptide RPRAATF (SEQ ID NO: 9) in 1 min in an assay containing 0.1 mM RPRAATF (SEQ ID NO: 9)). […]

[3] = system: GST-PKBα; assay: Activation of GST-PKBα after stimulation of transfected 293 cells; format: cell-based, human; settings: versus unstimulated 293 cells
Excerpt: Expression of GST-PKBα in 293 cells. The DNA sequence encoding PKBα was subcloned into the eukaryotic expression vector PEBG2T that has been used to overexpress GST-fusion proteins in eukaryotic cells under an EF1α promoter. A PCR reaction was set up to generate a full length cDNA encoding the PKBα gene with a BamH1site at the 5′ end of the cDNA that is in frame with the GST sequence of the PEBG2T vector and the ATG initiation codon of PKBα, and a KpnI site at the 3′ end, using the human PCMV5-HA-PKBα plasmid. The DNA sequence of the BamH1/KpnI cDNA fragment was checked and then subcloned into the unique BamH1/KpnI restriction sites on the pEBG 2T expression vector. In order to prepare GST-PKBα, 40, 10 cm diameter dishes of human embryonic kidney 293 cells were cultured and each dish transfected with 20 μg of GST PKBα expression construct using the modified calcium phosphate method described previously for overexpression of haemaglutinin tagged PKBα in 293 cells. […]

[4] = molecular target: T2, GST-PKBα (Homo sapiens, UniProt P31749); assay: GST-PKBα activity and phosphorylation with lipids in the absence of PDK1; format: biochemical; settings: same conditions as PDK1 activation
T2 construct: generate a full length cDNA encoding the PKBα gene; made in house; host or cells: human embryonic kidney 293 cells (pEBG2T), serum starved
Description: as §1, §2

[5] = molecular target: T3, GST-PDK1 (Homo sapiens, UniProt O15530); assay: GST-PDK1 assay: activation and phosphorylation of GST-PKBα; format: biochemical; settings: for activation and phosphorylation of GST-PKBα by GST-PDK1 (in words): lipid 10 μM in PtdCho/PtdSer vesicles
T3 construct: Residues 52-556 of PDK1 were expressed in human embryonic kidney 293 cells; made in house; host or cells: human embryonic kidney 293 cells (pEBG2T)
T3 sequence (O15530 52-556): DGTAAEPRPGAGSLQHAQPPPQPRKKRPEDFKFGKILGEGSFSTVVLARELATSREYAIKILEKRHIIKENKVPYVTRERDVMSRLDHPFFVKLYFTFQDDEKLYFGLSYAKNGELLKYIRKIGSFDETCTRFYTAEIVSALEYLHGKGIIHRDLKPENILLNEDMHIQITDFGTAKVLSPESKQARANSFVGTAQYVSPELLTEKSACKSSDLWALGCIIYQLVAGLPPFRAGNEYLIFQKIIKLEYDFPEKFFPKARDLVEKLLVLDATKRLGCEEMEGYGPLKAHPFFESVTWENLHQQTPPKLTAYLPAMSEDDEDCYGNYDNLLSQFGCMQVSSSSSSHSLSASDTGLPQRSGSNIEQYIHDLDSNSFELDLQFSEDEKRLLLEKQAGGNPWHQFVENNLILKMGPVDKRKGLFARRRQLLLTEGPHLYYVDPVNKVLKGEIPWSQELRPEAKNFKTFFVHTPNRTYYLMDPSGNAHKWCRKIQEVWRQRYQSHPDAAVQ
Description: (§3) FIG. 12. […] In panels A and C, the assays were terminated by making the incubations 1% (by vol) in TRITON X-100™ (see Ref 21), and the increase in specific activity of GST-PKBα was determined. In panels B and D, the reactions were terminated by making the solutions 1% in SDS, the samples were subjected to SDS/polyacrylamide gel electrophoresis, and the phosphorylation was assessed by autoradiography of the Coomassie blue-stained band corresponding to GST-PKBα.
(§4) One unit of PDK1 activity was defined as that amount required to increase the basal activity of GST-PKBα by 1 unit of activity in one min.

[6] = molecular target: T4, GST-DSTPK61 (Drosophila melanogaster, UniProt Q9W0V1); assay: GST-DSTPK61 assay: activation and phosphorylation of GST-PKBα; format: biochemical; settings: lipid 10 μM in PtdCho/PtdSer vesicles
T4 construct: residues 1-752 of DSTPK61 in E. coli as fusion proteins; made in house; host or cells: E. coli (pGEX-3X)
Description: as §3, §4

[7] = molecular target: PKB (Homo sapiens, UniProt P31749); settings: cited from earlier work
[8] = system: PDK1; assay: Phosphorylation of GST-PKBα by PDK1 with [γ32P]ATP; format: biochemical, rabbit; settings: lipid 10 μM in PtdCho/PtdSer vesicles
Description: Solutions were stored at 4° C. at concentrations 10-fold higher than those required in the assay and used within 2-4 days.
Phosphorylation of GST-PKB ? by PDK1. The incubations were identical to the Stage 1 described above except that [γ^32P] ATP (200-400 cpm/pmol) was used instead of unlabelled ATP. The reactions were terminated by making the solution 1% (by mass) in SDS. […] The Coomassie blue-staining bands corresponding to GST-PKBα were excised and the ^32P-radioactivity associated with each band was quantified.

T1 sequence (P31749 whole entry partner, the tested form may be a part): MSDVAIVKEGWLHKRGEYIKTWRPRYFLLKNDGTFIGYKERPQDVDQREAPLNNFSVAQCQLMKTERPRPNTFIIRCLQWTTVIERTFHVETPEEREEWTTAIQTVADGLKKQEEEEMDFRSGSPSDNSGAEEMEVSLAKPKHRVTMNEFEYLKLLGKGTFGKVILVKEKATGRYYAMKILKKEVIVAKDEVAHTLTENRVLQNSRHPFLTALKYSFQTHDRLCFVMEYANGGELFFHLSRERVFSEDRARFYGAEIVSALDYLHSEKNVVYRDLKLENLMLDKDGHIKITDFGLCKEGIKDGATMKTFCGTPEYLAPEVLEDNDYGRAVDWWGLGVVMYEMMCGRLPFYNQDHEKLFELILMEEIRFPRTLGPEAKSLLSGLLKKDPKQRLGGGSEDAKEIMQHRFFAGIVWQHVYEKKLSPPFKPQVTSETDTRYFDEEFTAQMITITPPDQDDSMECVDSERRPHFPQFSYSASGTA
T1 sequence (O15530 1-450, stated change not applied): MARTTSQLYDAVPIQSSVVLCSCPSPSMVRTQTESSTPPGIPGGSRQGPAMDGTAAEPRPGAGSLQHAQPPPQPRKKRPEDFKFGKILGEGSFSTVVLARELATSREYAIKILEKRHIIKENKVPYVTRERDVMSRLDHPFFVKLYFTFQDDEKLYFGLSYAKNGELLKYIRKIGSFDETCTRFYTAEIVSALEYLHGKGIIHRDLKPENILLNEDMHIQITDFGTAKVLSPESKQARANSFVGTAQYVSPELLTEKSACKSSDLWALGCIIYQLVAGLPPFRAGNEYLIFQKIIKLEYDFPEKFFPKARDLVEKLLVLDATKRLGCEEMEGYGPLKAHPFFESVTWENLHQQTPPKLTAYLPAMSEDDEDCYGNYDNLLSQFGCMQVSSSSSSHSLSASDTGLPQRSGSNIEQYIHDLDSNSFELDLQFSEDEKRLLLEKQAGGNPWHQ
T4 sequence (Q9W0V1 85-836 Q200H/Q201E/Q317A/G443R): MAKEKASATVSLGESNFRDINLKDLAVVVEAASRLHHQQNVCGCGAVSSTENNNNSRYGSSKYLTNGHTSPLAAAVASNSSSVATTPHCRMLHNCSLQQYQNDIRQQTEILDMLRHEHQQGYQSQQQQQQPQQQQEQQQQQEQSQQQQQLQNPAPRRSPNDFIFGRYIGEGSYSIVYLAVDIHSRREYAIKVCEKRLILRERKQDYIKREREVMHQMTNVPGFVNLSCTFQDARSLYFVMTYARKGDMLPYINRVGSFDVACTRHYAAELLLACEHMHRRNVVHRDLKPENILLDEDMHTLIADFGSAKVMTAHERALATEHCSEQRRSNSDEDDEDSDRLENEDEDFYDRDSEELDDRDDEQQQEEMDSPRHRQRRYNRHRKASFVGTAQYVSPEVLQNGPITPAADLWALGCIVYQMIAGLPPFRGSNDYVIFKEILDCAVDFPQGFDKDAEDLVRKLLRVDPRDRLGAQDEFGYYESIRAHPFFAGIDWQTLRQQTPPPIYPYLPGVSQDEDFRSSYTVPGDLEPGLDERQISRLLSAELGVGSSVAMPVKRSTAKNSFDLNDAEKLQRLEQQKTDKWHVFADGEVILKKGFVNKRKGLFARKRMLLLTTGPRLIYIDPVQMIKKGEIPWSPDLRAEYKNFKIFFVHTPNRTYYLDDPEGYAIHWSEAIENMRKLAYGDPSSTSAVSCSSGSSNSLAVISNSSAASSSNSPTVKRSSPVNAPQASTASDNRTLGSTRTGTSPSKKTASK
Chain of PKB (P31749 whole entry, species assumed): as the sequence (P31749 whole entry partner, the tested form may be a part) above
T2 sequence (P31749 whole entry): as the sequence (P31749 whole entry partner, the tested form may be a part) above

| Molecule | activation of PDK1 (in words) [1] | order of level of activation of the 3-phosphoinositide-dependent kinase (most effective first) [1] | activation of GST-PKBα by GST-ΔPH-PDK1 (in words) [2] | fold-activation of GST-PKBα (PDK1 activity) [1] | activation and phosphorylation of GST-PKBα by GST-PDK1 (in words) [5] | activation and phosphorylation of GST-PKBα by GST-DSTPK61 (in words) [6] | also measured |
| --- | --- | --- | --- | --- | --- | --- | --- |
| CCCCC/C=C\C/C=C\C/C=C\C/C=C\CCCC(=O)OC(COC(=O)CCCCCCCCCCCCCCCCC)COP(=O)(O)OC1C(O)C(OP(=O)(O)O)C(OP(=O)(O)O)C(OP(=O)(O)O)C1O (single isomer, unassigned) [Lipid 2, L-enantiomer of sn-1-stearoyl-2-arachidonyl PtdIns(3,4,5)P3] | no significant activation | 2 | no activation | – | – | – | fold-activation of GST-PKBα (PDK1 activity) ([1]; 2-arachidonyl PtdIns(3,4,5)P3): 1.7 fold; activation of PDK1 (in words) ([1]; listed as L-enantiomer of sn-1-stearoyl-2-arachidonyl PtdIns(3,4,5)P3): almost ineffective |
| CCCCC/C=C\C/C=C\C/C=C\C/C=C\CCCC(=O)O[C@H](COC(=O)CCCCCCCCCCCCCCCCC)COP(=O)(O)O[C@H]1[C@H](O)[C@@H](OP(=O)(O)O)[C@H](OP(=O)(O)O)[C@@H](OP(=O)(O)O)[C@H]1O [Lipid 1, sn-1-stearoyl, 2-arachidonyl D-phosphatidylinositol 3,4,5-trisphosphate] | potently activated PDK1 | – | activated more effectively | 13 fold | – | – | – |
| insulin: insulin used to stimulate 293 cells | – | – | – | – | – | – | fold activation of GST-PKBα after stimulation of 293 cells [3]: 20 fold |
| Phosphatidylinositol 3,4-bisphosphate [PtdIns(3,4)P2] | only active in the presence of low micromolar concentrations | – | – | – | activated and phosphorylated GST-PKBα | activated and phosphorylated GST-PKBα | activation, inhibition or phosphorylation of GST-PKBα in the absence of PDK1 [4]: no effect; fold enhancement of PDK1 activity in the presence of the inositol phospholipid ([5]; versus absence of PtdIns(3,4,5)P3 or PtdIns(3,4)P2): about 1000 fold; affinity of binding to PKB (in words) ([7]; via the N-terminal PH domain): micromolar affinity |
| PtdIns(4,5)P2 [Lipid 9] | no significant activation | – | – | – | no activation or phosphorylation | no activation or phosphorylation | activation of PDK1 (in words) ([1]; listed as PtdIns(4,5)P2): did not activate PDK1 at all; activation of PDK1 (in words) ([1]; listed as lipid 9): did not activate PDK1; phosphorylation of GST-PKBα by PDK1 (in words) [8]: did not activate PDK1 or induce the phosphorylation; fold lower affinity of PKB than for PtdIns(3,4,5)P3 or PtdIns(3,4)P2 [7]: 10 fold |
| CCCCCCCCCCCCCCCC(=O)OCC(COP(=O)(O)OC1C(O)C(O)C(OP(=O)(O)O)C(OP(=O)(O)O)C1O)OC(=O)CCCCCCCCCCCCCCC (stereo not shown) [Lipid 7, sn-1,2 di-palmitoyl PtdIns(3,4)P2] | as effective as sn-1,2-dipalmitoyl D-PtdIns(3,4,5)P3 | 4 | very poor | about 6 fold | as effective as sn-1,2-dipalmitoyl D-PtdIns(3,4,5)P3 | – | fold less effective in activating PDK1 than the sn-1-stearoyl-2-arachidonyl and sn-2-arachidonyl-3-stearoyl derivatives [1]: ~3 fold |
